Measurements taken from ChEMBL document CHEMBL5696442, “Discovery of type II inhibitors of TGFβ-activated kinase 1 (TAK1) and mitogen-activated protein kinase kinase kinase kinase 2 (MAP4K2)” (J Med Chem, 2015).

Columns and labels:
[1] = target: Serine/threonine-protein kinase 24 (Homo sapiens) (UniProt Q9Y6E0); assay: Inhibition of MST3 Lys2 labeling site harbouring DIKAANVLLSEHGEVK in human Huh-7 cells at 1 uM by KiNativ Profiling analysis relative to control; type: cell-based
[2] = Inhibition of KHS1/2 K2 labeling site in human Huh-7 cells at 1 uM by KiNativ Profiling analysis relative to control; conditions: condition cancer
[3] = target: Calcium-dependent protein kinase 1 (Plasmodium falciparum) (UniProt P62344); assay: Inhibition of Plasmodium falciparum PFCDPK1 at 1 uM by Ambit Kinomescan binding assay relative to control; values are per cent of control
[4] = target: Cyclin-dependent kinase 2 (Homo sapiens) (UniProt P24941); assay: Inhibition of CDK2 Lys1 labeling site in human A-375 cells at 0.5 uM by KiNativ Profiling analysis relative to control; type: cell-based
[5] = target: T1, Serine/threonine-protein kinase TAO1 (Homo sapiens) (UniProt Q7L7X3); assay: Inhibition of TAO1 Lys2 labeling site in human A-375 cells at 5 uM by KiNativ Profiling analysis relative to control; type: cell-based
T1 sequence (whole entry): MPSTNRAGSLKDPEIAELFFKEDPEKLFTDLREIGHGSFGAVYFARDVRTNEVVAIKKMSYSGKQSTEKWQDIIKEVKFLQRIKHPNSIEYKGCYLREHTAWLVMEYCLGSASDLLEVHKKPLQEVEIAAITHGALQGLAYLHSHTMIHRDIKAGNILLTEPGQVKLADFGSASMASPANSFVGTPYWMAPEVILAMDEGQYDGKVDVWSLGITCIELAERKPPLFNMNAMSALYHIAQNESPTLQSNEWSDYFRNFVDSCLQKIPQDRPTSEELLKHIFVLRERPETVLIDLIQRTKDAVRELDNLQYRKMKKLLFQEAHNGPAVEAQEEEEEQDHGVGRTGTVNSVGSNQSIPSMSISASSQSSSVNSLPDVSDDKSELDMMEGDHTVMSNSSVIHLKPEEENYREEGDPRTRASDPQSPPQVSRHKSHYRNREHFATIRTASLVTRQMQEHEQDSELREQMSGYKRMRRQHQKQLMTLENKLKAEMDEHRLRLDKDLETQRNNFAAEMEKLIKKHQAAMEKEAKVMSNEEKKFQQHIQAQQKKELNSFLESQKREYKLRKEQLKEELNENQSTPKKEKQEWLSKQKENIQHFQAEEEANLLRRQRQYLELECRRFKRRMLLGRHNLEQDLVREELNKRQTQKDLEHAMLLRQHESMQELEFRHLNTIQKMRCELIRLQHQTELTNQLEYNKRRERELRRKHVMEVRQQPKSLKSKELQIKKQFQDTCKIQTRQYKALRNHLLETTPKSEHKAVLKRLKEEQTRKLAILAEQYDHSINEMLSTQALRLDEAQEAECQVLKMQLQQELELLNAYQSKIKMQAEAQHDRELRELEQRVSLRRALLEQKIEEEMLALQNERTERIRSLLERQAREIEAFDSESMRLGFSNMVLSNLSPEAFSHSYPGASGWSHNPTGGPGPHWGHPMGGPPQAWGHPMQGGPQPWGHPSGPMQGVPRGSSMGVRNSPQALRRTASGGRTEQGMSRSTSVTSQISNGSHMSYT

[6] = target: Cyclin-dependent kinase 1 (Homo sapiens) (UniProt P06493); assay: Inhibition of CDC2 Lys2 labeling site harbouring DLKPQNLLIDDKGTIK in human A-375 cells at 5 uM by KiNativ Profiling analysis relative to control; type: cell-based
[7] = target: Ephrin type-A receptor 5 (Homo sapiens) (UniProt P54756); assay: Inhibition of EPHA5 (unknown origin) at 1 uM by Ambit Kinomescan binding assay relative to control
[8] = target: Calcium/calmodulin-dependent protein kinase type II subunit gamma (Homo sapiens) (UniProt Q13555); assay: Inhibition of CaMK2g Lys1 labeling site harbouring TSTQEYAAKIINTK in human A-375 cells at 5 uM by KiNativ Profiling analysis relative to control; type: cell-based
[9] = target: Serine/threonine-protein kinase SMG1 (Homo sapiens) (UniProt Q96Q15); assay: Inhibition of SMG1 ATP labeling site harbouring SYPYLFKGLEDLHLDER in human A-375 cells at 5 uM by KiNativ Profiling analysis relative to control; type: cell-based
[10] = target: Serine/threonine-protein kinase MARK1 (Homo sapiens) (UniProt Q9P0L2); assay: Inhibition of MARK1 Lys2 labeling site in human A-375 cells at 0.5 uM by KiNativ Profiling analysis relative to control; type: cell-based
[11] = target: T2, Serine/threonine-protein kinase TAO3 (Homo sapiens) (UniProt Q9H2K8); assay: Inhibition of TAOK3 (unknown origin) at 1 uM by Ambit Kinomescan binding assay relative to control; values are per cent of control
T2 sequence (whole entry): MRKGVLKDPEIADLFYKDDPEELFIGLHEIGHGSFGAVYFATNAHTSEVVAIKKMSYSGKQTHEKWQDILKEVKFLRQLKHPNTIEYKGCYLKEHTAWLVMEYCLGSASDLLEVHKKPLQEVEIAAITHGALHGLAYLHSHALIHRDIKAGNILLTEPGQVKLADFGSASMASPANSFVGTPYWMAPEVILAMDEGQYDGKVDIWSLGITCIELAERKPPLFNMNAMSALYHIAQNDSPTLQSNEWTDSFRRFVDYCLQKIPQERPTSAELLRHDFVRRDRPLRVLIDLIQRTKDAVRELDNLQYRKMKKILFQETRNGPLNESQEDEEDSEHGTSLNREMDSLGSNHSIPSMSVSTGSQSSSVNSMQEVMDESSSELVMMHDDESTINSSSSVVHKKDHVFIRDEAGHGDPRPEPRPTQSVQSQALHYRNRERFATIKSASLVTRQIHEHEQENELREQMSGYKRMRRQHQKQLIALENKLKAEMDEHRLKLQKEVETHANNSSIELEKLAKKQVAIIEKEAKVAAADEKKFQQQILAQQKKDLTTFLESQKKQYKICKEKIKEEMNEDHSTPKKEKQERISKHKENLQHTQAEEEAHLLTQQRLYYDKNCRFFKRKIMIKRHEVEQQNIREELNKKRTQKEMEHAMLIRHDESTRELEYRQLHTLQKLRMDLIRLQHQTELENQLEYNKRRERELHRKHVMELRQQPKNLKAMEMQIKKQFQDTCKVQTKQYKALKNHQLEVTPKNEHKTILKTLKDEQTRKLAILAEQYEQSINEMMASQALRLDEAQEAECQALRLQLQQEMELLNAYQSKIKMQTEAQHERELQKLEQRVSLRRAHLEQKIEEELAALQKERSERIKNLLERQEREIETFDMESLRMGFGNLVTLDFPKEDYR

Serine/threonine-protein kinase 24 (Homo sapiens), sequence (Q9Y6E0 whole entry, looked up): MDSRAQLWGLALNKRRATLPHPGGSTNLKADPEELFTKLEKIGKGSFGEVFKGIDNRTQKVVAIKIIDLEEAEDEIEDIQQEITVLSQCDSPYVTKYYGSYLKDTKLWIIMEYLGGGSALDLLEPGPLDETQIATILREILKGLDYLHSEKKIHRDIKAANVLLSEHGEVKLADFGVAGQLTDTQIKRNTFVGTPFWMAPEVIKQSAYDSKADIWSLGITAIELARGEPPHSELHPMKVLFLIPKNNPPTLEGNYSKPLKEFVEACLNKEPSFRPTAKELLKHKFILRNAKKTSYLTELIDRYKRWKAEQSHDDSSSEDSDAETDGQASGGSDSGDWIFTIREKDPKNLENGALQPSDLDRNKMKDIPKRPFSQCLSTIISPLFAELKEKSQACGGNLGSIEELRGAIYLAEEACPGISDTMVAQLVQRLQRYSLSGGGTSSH
Cyclin-dependent kinase 1 (Homo sapiens), sequence (P06493 whole entry, looked up): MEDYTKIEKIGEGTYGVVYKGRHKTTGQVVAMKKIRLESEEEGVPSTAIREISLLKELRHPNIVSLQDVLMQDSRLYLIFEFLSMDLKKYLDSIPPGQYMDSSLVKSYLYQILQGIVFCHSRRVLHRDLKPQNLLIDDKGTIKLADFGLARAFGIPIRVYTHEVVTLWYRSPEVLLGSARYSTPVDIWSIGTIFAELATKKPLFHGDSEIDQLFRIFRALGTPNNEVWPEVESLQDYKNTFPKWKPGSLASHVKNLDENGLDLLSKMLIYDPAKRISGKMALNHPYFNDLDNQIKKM
Serine/threonine-protein kinase SMG1 (Homo sapiens), sequence (Q96Q15 whole entry): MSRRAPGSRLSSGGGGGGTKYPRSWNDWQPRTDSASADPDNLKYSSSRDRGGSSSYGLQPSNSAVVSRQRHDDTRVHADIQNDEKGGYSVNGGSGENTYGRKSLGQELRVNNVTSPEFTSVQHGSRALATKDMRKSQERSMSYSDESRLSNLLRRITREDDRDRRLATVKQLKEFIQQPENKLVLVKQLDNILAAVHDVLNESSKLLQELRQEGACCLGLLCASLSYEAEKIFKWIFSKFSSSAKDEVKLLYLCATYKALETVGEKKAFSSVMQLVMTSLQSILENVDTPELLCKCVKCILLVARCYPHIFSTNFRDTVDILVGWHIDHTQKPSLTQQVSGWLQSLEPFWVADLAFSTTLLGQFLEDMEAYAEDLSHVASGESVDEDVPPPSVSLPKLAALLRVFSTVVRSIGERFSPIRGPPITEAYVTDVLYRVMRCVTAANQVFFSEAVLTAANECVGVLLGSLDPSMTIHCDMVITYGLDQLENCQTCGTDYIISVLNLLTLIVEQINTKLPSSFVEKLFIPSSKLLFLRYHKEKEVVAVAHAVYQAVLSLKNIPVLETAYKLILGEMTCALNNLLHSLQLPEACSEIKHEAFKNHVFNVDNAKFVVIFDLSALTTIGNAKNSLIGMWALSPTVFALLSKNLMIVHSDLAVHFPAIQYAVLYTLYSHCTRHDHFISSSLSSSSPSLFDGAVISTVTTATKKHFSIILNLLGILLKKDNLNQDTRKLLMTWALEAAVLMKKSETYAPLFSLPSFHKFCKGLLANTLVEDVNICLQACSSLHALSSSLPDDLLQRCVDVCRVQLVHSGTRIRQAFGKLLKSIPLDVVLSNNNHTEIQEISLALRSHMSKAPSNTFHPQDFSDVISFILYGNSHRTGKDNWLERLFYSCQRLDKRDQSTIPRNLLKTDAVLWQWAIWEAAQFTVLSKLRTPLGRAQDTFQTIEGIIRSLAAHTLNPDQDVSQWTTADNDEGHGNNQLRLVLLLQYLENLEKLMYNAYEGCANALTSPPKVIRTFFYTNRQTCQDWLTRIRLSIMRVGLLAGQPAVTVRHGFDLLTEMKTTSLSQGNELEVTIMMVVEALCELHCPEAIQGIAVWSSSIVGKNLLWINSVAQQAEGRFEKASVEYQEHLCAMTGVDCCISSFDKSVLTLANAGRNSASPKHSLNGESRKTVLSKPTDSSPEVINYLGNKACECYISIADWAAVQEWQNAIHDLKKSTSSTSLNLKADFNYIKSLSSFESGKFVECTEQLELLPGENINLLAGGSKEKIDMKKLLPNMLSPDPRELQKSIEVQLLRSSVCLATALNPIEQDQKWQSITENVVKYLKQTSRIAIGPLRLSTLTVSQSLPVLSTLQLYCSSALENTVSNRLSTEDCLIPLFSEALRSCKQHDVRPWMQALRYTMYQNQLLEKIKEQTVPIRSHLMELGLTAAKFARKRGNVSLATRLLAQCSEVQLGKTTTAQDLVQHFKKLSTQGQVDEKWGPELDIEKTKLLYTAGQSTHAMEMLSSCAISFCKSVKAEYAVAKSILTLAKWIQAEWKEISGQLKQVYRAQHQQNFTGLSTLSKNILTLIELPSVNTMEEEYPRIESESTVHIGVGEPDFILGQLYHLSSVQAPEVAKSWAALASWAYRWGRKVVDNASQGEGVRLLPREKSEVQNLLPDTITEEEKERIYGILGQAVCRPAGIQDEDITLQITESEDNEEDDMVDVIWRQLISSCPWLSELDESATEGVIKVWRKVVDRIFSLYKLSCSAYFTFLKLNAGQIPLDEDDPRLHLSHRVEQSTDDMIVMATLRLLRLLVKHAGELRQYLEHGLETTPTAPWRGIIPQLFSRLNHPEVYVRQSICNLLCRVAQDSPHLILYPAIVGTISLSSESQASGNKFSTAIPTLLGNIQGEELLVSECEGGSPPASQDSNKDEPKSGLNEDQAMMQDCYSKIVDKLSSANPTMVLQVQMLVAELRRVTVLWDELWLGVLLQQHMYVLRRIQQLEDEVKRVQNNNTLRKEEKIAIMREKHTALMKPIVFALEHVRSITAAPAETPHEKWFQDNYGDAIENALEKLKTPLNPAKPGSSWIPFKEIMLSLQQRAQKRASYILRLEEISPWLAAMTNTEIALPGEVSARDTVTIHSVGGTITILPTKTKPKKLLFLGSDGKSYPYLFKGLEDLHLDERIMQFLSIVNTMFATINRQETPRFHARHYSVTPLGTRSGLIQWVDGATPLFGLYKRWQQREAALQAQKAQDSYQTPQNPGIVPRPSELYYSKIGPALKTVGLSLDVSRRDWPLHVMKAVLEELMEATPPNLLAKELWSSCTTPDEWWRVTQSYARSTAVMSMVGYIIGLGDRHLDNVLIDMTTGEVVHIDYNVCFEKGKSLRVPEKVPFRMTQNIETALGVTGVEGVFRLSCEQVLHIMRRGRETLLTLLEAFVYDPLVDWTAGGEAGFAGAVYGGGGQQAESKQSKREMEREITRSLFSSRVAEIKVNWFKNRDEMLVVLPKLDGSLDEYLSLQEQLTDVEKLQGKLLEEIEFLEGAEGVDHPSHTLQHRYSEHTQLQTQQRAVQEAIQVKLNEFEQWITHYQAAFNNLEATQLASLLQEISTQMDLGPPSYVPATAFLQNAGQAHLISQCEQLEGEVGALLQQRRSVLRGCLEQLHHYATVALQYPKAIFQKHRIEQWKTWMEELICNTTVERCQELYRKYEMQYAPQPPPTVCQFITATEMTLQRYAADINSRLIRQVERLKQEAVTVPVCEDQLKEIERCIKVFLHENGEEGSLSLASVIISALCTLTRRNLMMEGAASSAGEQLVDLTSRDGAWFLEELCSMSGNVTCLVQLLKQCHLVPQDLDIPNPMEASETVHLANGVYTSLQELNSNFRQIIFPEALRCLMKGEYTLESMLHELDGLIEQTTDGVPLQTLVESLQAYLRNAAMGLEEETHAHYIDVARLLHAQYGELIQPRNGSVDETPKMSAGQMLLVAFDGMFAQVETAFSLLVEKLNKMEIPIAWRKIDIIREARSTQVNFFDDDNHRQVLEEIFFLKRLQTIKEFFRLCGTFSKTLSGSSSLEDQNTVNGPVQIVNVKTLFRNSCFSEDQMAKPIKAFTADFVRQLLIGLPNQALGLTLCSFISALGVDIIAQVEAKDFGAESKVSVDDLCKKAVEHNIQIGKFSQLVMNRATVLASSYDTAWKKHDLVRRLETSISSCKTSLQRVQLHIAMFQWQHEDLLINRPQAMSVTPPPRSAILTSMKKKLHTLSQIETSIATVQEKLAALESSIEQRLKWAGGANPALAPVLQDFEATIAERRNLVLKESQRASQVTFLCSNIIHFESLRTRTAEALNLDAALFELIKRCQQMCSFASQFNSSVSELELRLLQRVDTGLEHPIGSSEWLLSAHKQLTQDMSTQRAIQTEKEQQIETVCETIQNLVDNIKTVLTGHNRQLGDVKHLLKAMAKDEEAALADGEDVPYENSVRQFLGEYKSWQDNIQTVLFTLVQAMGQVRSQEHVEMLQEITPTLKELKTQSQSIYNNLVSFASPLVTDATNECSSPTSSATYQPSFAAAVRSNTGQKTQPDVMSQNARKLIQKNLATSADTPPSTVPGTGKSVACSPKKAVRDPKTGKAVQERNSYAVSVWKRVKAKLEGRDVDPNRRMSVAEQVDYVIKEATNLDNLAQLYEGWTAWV
Calcium/calmodulin-dependent protein kinase type II subunit gamma (Homo sapiens), sequence (Q13555 whole entry): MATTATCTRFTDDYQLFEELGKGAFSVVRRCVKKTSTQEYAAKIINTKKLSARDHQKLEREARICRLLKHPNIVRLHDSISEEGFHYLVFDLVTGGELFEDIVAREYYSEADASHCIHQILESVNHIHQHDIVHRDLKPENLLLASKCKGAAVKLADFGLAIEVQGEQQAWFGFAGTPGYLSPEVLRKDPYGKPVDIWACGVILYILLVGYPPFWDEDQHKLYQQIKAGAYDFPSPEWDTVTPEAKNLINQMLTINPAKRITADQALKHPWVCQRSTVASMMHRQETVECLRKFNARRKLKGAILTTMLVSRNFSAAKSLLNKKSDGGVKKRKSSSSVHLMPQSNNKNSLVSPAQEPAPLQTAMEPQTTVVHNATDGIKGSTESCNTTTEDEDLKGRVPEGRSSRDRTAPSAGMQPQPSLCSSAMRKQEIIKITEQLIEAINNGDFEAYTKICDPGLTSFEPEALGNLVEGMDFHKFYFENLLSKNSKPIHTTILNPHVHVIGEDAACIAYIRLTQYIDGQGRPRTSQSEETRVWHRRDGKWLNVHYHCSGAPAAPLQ

CNc1cc(Oc2cc(C(=O)Nc3cc(N4CCN(C)CC4)cc(C(F)(F)F)c3)ccc2C)ncn1
inhibition [1]: 4.3%

CCN1CCN(Cc2ccc(NC(=O)c3ccc(C)c(Oc4ccnc5[nH]ccc45)c3)cc2C(F)(F)F)CC1
inhibition at 1 µM [2]: 6.6%

CCN1CCN(Cc2ccc(NC(=O)c3ccc(C)c(/C=C/c4cnc5[nH]ccc5c4OC)c3)cc2C(F)(F)F)CC1
residual activity [3]: 4.3% | inhibition [4]: 20.7% | inhibition [5]: 66.2% | inhibition [6]: -6.1% | inhibition [7]: 21% | inhibition [8]: 14.6% | inhibition [9]: 24.4% | inhibition [10]: 2.2% | percent of control [11]: 0.75%
